Data set [1] deals with recombinant NL4-3 virus (Renilla luciferase in nef) in MT-2 cells. Nature of the data set: whole plant or invertebrate. To be noted: Renilla, NL43, MT-2 cells infected for 4-5 days with recombinant NL4-3 Renilla luciferase virus; luciferase activity. Type of data set: cell-based, HIV. Put shortly:
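MT-2 cells infected for 4-5 days with NL4-3 reporter virus (Renilla luciferase replacing part of nef, produced by transfection of 293T cells) in the presence of serial compound dilutions. Antiviral activity quantified by luciferase activity read with a live-cell substrate.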

Data set [2] in a line: Compound cytotoxicity, XTT-based colorimetric assay. Type of data set: cell-based. The following applies: human, uninfected MT2 cells, day 4, XTT. Put shortly: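 Run under the antiviral-assay protocol but without virus. Viability was read on day 4 and CC50 values were derived from the readout.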

Where only a bound is given, the exact number is not on record here.

For `CN(C(=O)[C@H](Cc1cc(F)cc(F)c1)NC(=O)NS(=O)(=O)N[C@@H](Cc1cc(F)cc(F)c1)C(=O)N(C)c1ccc2c(c1)OCCO2)c1ccc2c(c1)OCCO2` [Example 162], the EC50 in data set [1] turned out to be 0.07 µM. For the same compound, the CC50 at 4 days in data set [2] came to 43.9 µM.
Turning to `Cc1cc(C(=O)N[C@@H](Cc2cc(F)cc(F)c2)C(=O)N(C)c2ccc3scnc3c2)cc(C(=O)N[C@@H](Cc2cc(F)cc(F)c2)C(=O)N(C)c2ccc3scnc3c2)c1` [Example 127], the EC50 in data set [1] was 0.01 µM. Also, half-maximal cytotoxicity in data set [2] (CC50 at 4 days) was put at 3.8 µM.
Consider `CCN(C(=O)[C@H](Cc1cc(F)cc(F)c1)NC(=O)NS(=O)(=O)N[C@@H](Cc1cc(F)cc(F)c1)C(=O)N(CC)c1ccc(NC(=O)OC)cc1)c1ccc(NC(=O)OC)cc1` [Example 149], for which the EC50 in data set [1] stood at 1.64 µM. The same compound yielded a cytotoxic concentration (CC50) at 4 days in data set [2] of 79.5 µM.
Take `CN(C(=O)[C@H](Cc1cc(F)cc(F)c1)NC(=O)c1cccc(S(=O)(=O)N[C@@H](Cc2cc(F)cc(F)c2)C(=O)N(C)c2ccc3scnc3c2)c1)c1ccc2scnc2c1` [Example 107]: in data set [1], the EC50 stood at 0.3 µM. The half-maximal cytotoxic concentration (CC50) at 4 days in data set [2] was at least 100 µM.
Turning to `CCN(C(=O)[C@H](Cc1cc(F)cc(F)c1)NC(=O)CN1c2ccccc2N(CC(=O)N[C@@H](Cc2cc(F)cc(F)c2)C(=O)N(CC)c2ccc3oc(=O)n(CC)c3c2)S1(=O)=O)c1ccc2oc(=O)n(CC)c2c1` [Example 155], the EC50 in data set [1] came to 2.13 µM. The compound also yielded a CC50 at 4 days in data set [2] of at least 33.3 µM.
For `COc1ccc(N(C)C(=O)[C@H](Cc2ccccc2)NC(=O)/C=C/CC(=O)N[C@@H](Cc2ccccc2)C(=O)N(C)c2ccc(OC)cc2)cc1` [Example 117], in that order: 0.64 µM and 30.8 µM.
Turning to `CN(C(=O)[C@H](Cc1ccccc1)NC(=O)c1ccnc(N[C@@H](Cc2ccccc2)C(=O)N(C)c2ccc3scnc3c2)n1)c1ccc2scnc2c1` [Example 154], in data set [1], the EC50 is 1.86 µM. In addition, the CC50 at 4 days in data set [2] is at least 100 µM.
`COc1ccc(N(C)C(=O)[C@H](Cc2ccccc2)Nc2ccnc(N[C@@H](Cc3ccccc3)C(=O)N(C)c3ccc(OC)cc3)n2)cc1` [Example 145]: the EC50 in data set [1] came out at 12 µM. In data set [2], this compound registered a CC50 at 4 days of 19.1 µM.
Take `Cc1ccc(N(C)C(=O)[C@H](Cc2cc(F)cc(F)c2)NC(=O)c2ccc(F)c(C(=O)N[C@@H](Cc3cc(F)cc(F)c3)C(=O)N(C)c3ccc(C)nc3)c2)cn1` [Example 184]: in data set [1], the EC50 is 0.19 µM. The compound also had a half-maximal cytotoxic concentration (CC50) at 4 days in data set [2] of 11.1 µM.
For the compound `COc1ccc(N(C)C(=O)[C@H](Cc2ccccc2)NC(=O)NS(=O)(=O)N[C@@H](Cc2ccc(F)cc2)C(=O)N(C)C)cc1` [Example 9], in data set [1], the EC50 was 2.67 µM. In addition, in data set [2], the CC50 at 4 days was at least 100 µM.
On to `CCCN(C(=O)[C@H](Cc1cc(F)cc(F)c1)NC(=O)NS(=O)(=O)N[C@@H](Cc1cc(F)cc(F)c1)C(=O)N(CCC)c1ccc2nccnc2c1)c1ccc2nccnc2c1` [Example 204], for which the EC50 in data set [1] came to 15 µM. This compound had a CC50 at 4 days in data set [2] of at least 33.3 µM.
As to `C=CCN(C(=O)[C@H](Cc1cc(F)cc(F)c1)NC(=O)c1nccnc1C(=O)N[C@@H](Cc1cc(F)cc(F)c1)C(=O)N(CC=C)c1ccc(OC)cc1)c1ccc(OC)cc1` [Example 212], the EC50 in data set [1] stood at 3.73 µM. This compound returned a CC50 at 4 days in data set [2] of at least 100 µM.
Taken in the same sequence, the figures for `CN(C(=O)[C@H](Cc1cc(F)cc(F)c1)NC(=O)NS(=O)(=O)N[C@@H](Cc1cc(F)cc(F)c1)C(=O)N(C)c1ccc(=O)n(C)c1)c1ccc(=O)n(C)c1` [Example 174] were 100 µM and at least 100 µM.
For `C=CCCN(C(=O)[C@H](Cc1cc(F)cc(F)c1)NC(=O)NS(=O)(=O)N[C@@H](Cc1cc(F)cc(F)c1)C(=O)N(CCC=C)c1ccc(OC)cc1)c1ccc(OC)cc1` [Example 121], in that order: 0.73 µM and 18.8 µM.
Consider `COc1ccc(N(C)C(=O)[C@H](Cc2ccccc2)NC(=O)Cc2ccccc2CC(=O)N[C@@H](Cc2ccccc2)C(=O)N(C)c2ccc(OC)cc2)cc1` [Example 38], for which, in data set [1], the EC50 was determined as 0.55 µM. In data set [2], this compound came in with a CC50 at 4 days of 45 µM.

Values taken from patent publication US20180072997A1, “INHIBITORS OF HUMAN IMMUNODEFICIENCY VIRUS REPLICATION” (ViiV HEATHCARE UK (NO.5) LIMITED, priority 2015, published 2018).
